In paper PMC11538350, “Synthetic studies on the tetrasubstituted D-ring of cystobactamids lead to potent terephthalic acid antibiotics” (Communications Chemistry, 2024):
Values after ≈ are worked out from the molar mass of the structure shown.

Key:
Experiment in all cases: MIC assay
K. pneum. R-1525 = format: cell-based; details: Klebsiella pneumoniae; read-out: MIC K. pneum. R-1525
Experimental: (§1) All cystobactamids were evaluated in MIC-assays on a panel of representative ESKAPE strains with focus on A. baumannii (Tables 1 and 2). Compared to our previous work[10],[17],[18], we specifically included more challenging test strains with known resistances against gyrase inhibitors.
(§2) 2.1 Materials and Methods
(§3) Strains were cultivated according to standard procedures. Bacterial cryo-cultures were
(§4) resuspended into fresh MHBII (cation adjusted) medium. The resuspension
(§5) assay plate (Corning, #3788).
(§6) in parallel as a positive control. […]

A. baum. ATCC BAA-1710 = format: cell-based; details: Acinetobacter baumannii, ATCCBAA1710; read-out: MIC A. baum. ATCC BAA-1710
Experimental: as §1, §2, §3, §4, §5, §6

S. aur. ATCC-29213 = format: cell-based; details: Staphylococcus aureus, ATCC29213; reference strain; read-out: MIC S. aur. ATCC-29213
Experimental: as §1, §2, §3, §4, §5, §6

K. pneum. KP10581 = format: cell-based; details: Klebsiella pneumoniae; read-out: MIC K. pneum. KP10581
Experimental: as §1, §2, §3, §4, §5, §6

E. coli ATCC-25922 = format: cell-based; details: Escherichia coli, ATCC25922; reference strain; read-out: MIC E. coli ATCC-25922
Experimental: as §1, §2, §3, §4, §5, §6

E. cloacae ATCC BAA-2468 = format: cell-based; details: Enterobacter cloacae, ATCCBAA2468; read-out: MIC E. cloacae ATCC BAA-2468
Experimental: as §1, §2, §3, §4, §5, §6

A. baum. CIP-107292 = format: cell-based; details: Acinetobacter baumannii, CIP107292; read-out: MIC A. baum. CIP-107292
Experimental: as §1, §2, §3, §4, §5, §6

A. baum. R835 = format: cell-based; details: Acinetobacter baumannii; read-out: MIC A. baum. R835
Experimental: as §1, §2, §3, §4, §5, §6

E. coli LM705 = format: cell-based; details: Escherichia coli, LM705, read-out: MIC E. coli LM705
Experimental: as §1, §2, §3, §4, §5, §6

[1] = test system: S. pneum. DSM-11865 (PRSP); format: cell-based; details: Streptococcus pneumoniae; read-out: MIC S. pneum. DSM-11865 (PRSP)
Experimental: as §1, §2, §3, §4, §5, §6

E. ae. CIP 106754 = format: cell-based, Enterobacter aerogenes; details: Klebsiella aerogenes, CIP106754, read-out: MIC E. ae. CIP 106754
Experimental: as §1, §2, §3, §4, §5, §6

A. baum. DSM-30008 = format: cell-based; details: Acinetobacter baumannii, DSM30008; reference strain; read-out: MIC A. baum. DSM-30008
Experimental: as §1, §2, §3, §4, §5, §6

P. ae. PA14 = format: cell-based; details: Pseudomonas aeruginosa, PA14; reference strain; read-out: MIC P. ae. PA14
Experimental: as §1, §2, §3, §4, §5, §6

K. pneum. CIP-104298 = format: cell-based; details: Klebsiella pneumoniae, CIP104298; reference strain; read-out: MIC K. pneum. CIP-104298
Experimental: as §1, §2, §3, §4, §5, §6

P. ae. PA14ΔmexAB = format: cell-based; details: Pseudomonas aeruginosa, read-out: MIC P. ae. PA14ΔmexAB
Experimental: as §1, §2, §3, §4, §5, §6

A. baum. CIP-105742 = format: cell-based; details: Acinetobacter baumannii, CIP105742; read-out: MIC A. baum. CIP-105742
Experimental: as §1, §2, §3, §4, §5, §6

E. faec. DSM-17050 (VRE) = format: cell-based, Enterococcus faecium; details: Enterococcus; read-out: MIC E. faec. DSM-17050 (VRE)
Experimental: as §1, §2, §3, §4, §5, §6

Compound	MIC (K. pneum. R-1525) [µg/mL]	MIC (A. baum. ATCC BAA-1710) [µg/mL]	MIC (S. aur. ATCC-29213) [µg/mL]	MIC (K. pneum. KP10581) [µg/mL]	MIC (E. coli ATCC-25922) [µg/mL]	MIC (E. cloacae ATCC BAA-2468) [µg/mL]	MIC (A. baum. CIP-107292) [µg/mL]	MIC (A. baum. R835) [µg/mL]	MIC (E. coli LM705) [µg/mL]	MIC [1] [µg/mL]	MIC (E. ae. CIP 106754) [µg/mL]	MIC (A. baum. DSM-30008) [µg/mL]	MIC (P. ae. PA14) [µg/mL]	MIC (K. pneum. CIP-104298) [µg/mL]	MIC (P. ae. PA14ΔmexAB) [µg/mL]	MIC (A. baum. CIP-105742) [µg/mL]	MIC (E. faec. DSM-17050 (VRE)) [µg/mL]
C#CC[C@H](NC(=O)c1ccc(NC(=O)c2ccc(C#N)cc2)cc1)C(=O)Nc1ccc(C(=O)Nc2ccc(C(=O)Nc3ccc(C(=O)O)cc3)c(O)c2OC)cc1 [Cmpd. 10]	32 (≈ 41.8 µM)	0.25 (≈ 0.327 µM)	0.5 (≈ 0.654 µM)	1 (≈ 1.31 µM)	< 0.03	16 (≈ 20.9 µM)	4 (≈ 5.23 µM)	4 (≈ 5.23 µM)	< 0.03	< 0.03	4 (≈ 5.23 µM)	–	–	–	–	–	–
C#CC[C@H](NC(=O)c1ccc(NC(=O)c2ccc(C#N)cc2)cc1)C(=O)Nc1ccc(CNc2ccc(C(=O)Nc3ccc(C(=O)O)cc3)c(O)c2OC(C)C)cc1 [Cmpd. 40]	> 64	0.5 (≈ 0.642 µM)	0.5 to 1 (≈ 0.642 to 1.28 µM)	1 (≈ 1.28 µM)	0.5 to 1 (≈ 0.642 to 1.28 µM)	> 64	> 8	> 8	> 64	> 64	> 64	0.5 (≈ 0.642 µM)	> 64	> 64	2 (≈ 2.57 µM)	0.25 (≈ 0.321 µM)	0.25 (≈ 0.321 µM)
C#CC[C@H](NC(=O)c1ccc(NC(=O)c2ccc(C#N)cc2)cc1)C(=O)Nc1ccc(C(=O)Nc2ccc3c(=O)n(-c4ccc(C(=O)O)cc4)c(C)nc3c2OC(C)C)cc1 [Cmpd. 45a]	> 64	0.5 to 1 (≈ 0.613 to 1.23 µM)	4 (≈ 4.9 µM)	4 (≈ 4.9 µM)	2 to 4 (≈ 2.45 to 4.9 µM)	> 64	> 8	> 8	> 64	> 64	> 64	8 (≈ 9.81 µM)	> 64	> 64	16 to 32 (≈ 19.6 to 39.2 µM)	4 (≈ 4.9 µM)	2 to 4 (≈ 2.45 to 4.9 µM)
C#CC[C@H](NC(=O)c1ccc(NC(=O)c2ccc(C#N)cc2)cc1)C(=O)Nc1ccc(C(=O)Nc2ccc3c(=O)n(-c4ccc(C(=O)O)cc4)cnc3c2OC(C)C)cc1 [Cmpd. 45b]	> 64	> 8	8 (≈ 9.98 µM)	16 (≈ 20 µM)	1 (≈ 1.25 µM)	> 64	> 8	> 8	> 64	> 64	> 64	1 to 2 (≈ 1.25 to 2.49 µM)	> 64	> 64	> 64	2 (≈ 2.49 µM)	1 (≈ 1.25 µM)
CO[C@@H](C(N)=O)[C@H](NC(=O)c1ccc(NC(=O)c2ccc(C#N)cc2)cc1)C(=O)Nc1ccc(C(=O)Nc2ccc(C(=O)N(C)c3ccc(C(=O)O)cc3)c(O)c2OC(C)C)cc1 [Cmpd. 46]	> 64	> 8	> 64	> 64	< 0.03	> 64	> 8	> 8	> 64	> 64	> 64	> 8	> 64	> 64	> 64	> 8	> 64
C#CC[C@H](NC(=O)c1ccc(NC(=O)c2ccc(C#N)cc2)cc1)C(=O)Nc1ccc(C(=O)Nc2ccc(-c3ncc4cc(C(=O)O)ccc4n3)c(O)c2OC(C)C)cc1 [Cmpd. 47]	–	–	> 64	> 64	–	–	> 64	> 64	> 64	–	–	> 64	> 64	> 64	> 64	> 64	–
C#CC[C@H](NC(=O)c1ccc(NC(=O)c2ccc(C#N)cc2)cc1)C(=O)Nc1ccc(C(=O)Nc2ccc(-c3nc4ccc(C(=O)O)cc4[nH]3)c(O)c2OC(C)C)cc1 [Cmpd. 48]	> 64	> 8	4 (≈ 5.06 µM)	16 (≈ 20.3 µM)	64 (≈ 81 µM)	> 64	> 8	> 8	> 64	> 64	> 64	8 (≈ 10.1 µM)	> 64	> 64	> 64	> 8	2 (≈ 2.53 µM)
